Converted amounts (≈) assume the structure as drawn. Blank lines part the entries; values can stand above or below the molecule they belong to.
Tests used:
[1] = tested on: Escherichia coli; experiment: Antibacterial activity against Escherichia coli ATCC 700603 assessed as bacterial growth inhibition by agar dilution method; format: functional
[2] = tested on: Escherichia coli; experiment: Antibacterial activity against drug-sensitive Escherichia coli assessed as bacterial growth inhibition; format: functional
[3] = tested on: Escherichia coli; experiment: Antibacterial activity against Escherichia coli assessed as bacterial growth inhibition incubated for 18 hrs by twofold serial dilution assay; format: functional
[4] = tested on: Escherichia coli; experiment: Antibacterial activity against Escherichia coli assessed as bacterial growth inhibition incubated for 18 to 20 hrs by agar dilution method; format: functional; conditions: time 18-20 hrs
[5] = tested on: Escherichia coli; experiment: Antibacterial activity against Escherichia coli JM109 assessed as bacterial growth inhibition; format: functional
[6] = tested on: Escherichia coli; experiment: Antibacterial activity against Escherichia coli assessed as bacterial growth inhibition; format: functional
[7] = tested on: Escherichia coli; experiment: Antibacterial activity against Escherichia coli NCDC 134 assessed as bacterial growth inhibition; format: functional
[8] = tested on: Escherichia coli; experiment: Antibacterial activity against Escherichia coli assessed as bacterial growth inhibition incubated for 24 hrs by agar streak dilution method; format: functional
[9] = tested on: Escherichia coli; experiment: Antibacterial activity against Escherichia coli H560 assessed as bacterial growth inhibition; format: functional
[10] = tested on: Escherichia coli; experiment: Antibacterial activity against Escherichia coli KC-14 assessed as bacterial growth inhibition; format: functional
[11] = tested on: Escherichia coli; experiment: Antibacterial activity against Escherichia coli K-12 C600 assessed as bacterial growth inhibition; format: functional
[12] = tested on: Escherichia coli; experiment: Antibacterial activity against Escherichia coli 2010-05 assessed as bacterial growth inhibition measured after 24 hrs by agar dilution method; format: functional
[13] = tested on: Escherichia coli; experiment: Antibacterial activity against Escherichia coli 2010-29 assessed as bacterial growth inhibition measured after 24 hrs by agar dilution method; format: functional
[14] = tested on: Escherichia coli; experiment: Antibacterial activity against Escherichia coli assessed as bacterial growth inhibition by agar dilution method; format: functional
[15] = tested on: Escherichia coli; experiment: Antibacterial activity against clinical isolate Escherichia coli assessed as bacterial growth inhibition incubated for 24 hrs by agar dilution method; format: functional
[16] = Half life in mouse at 20 mg/kg, po; format: ADME, organism-based; conditions: in vivo
[17] = Cmax in mouse at 20 mg/kg, po; format: ADME, organism-based; set-up: dose 20 mg/kg, route po; conditions: in vivo
[18] = AUC(0 to infinity) in mouse at 20 mg/kg, po; format: ADME, organism-based; set-up: dose 20 mg/kg, route po; conditions: in vivo
[19] = tested on: Escherichia coli; experiment: Antibacterial activity against Escherichia coli KC-14 infected in po dosed mouse assessed as bacterial growth inhibition; format: functional; conditions: Escherichia coli, KC-14, po, read-out: ED50
[20] = tested on: Escherichia coli; experiment: Antibacterial activity against Escherichia coli DC0 assessed as bacterial growth inhibition by agar dilution method; format: functional
[21] = tested on: Escherichia coli; experiment: Potency index, ratio of ceftazidime MIC to compound IC50 for antibacterial activity against Escherichia coli DC2; format: functional
[22] = tested on: Escherichia coli; experiment: Antibacterial activity against Escherichia coli DC2 assessed as bacterial growth inhibition by agar dilution method; format: functional
[23] = tested on: Escherichia coli; experiment: Potency index, ratio of ceftazidime MIC to compound IC50 for antibacterial activity against Escherichia coli DC0; format: functional
[24] = tested on: Escherichia coli; experiment: Antibacterial activity against Escherichia coli ATCC 35218 assessed as bacterial growth inhibition incubated for 18 hrs by agar dilution method; format: functional
[25] = tested on: Escherichia coli; experiment: In vivo antibacterial activity against Escherichia coli H560 infected in sc dosed CD-1 mouse assessed as bacterial growth inhibition; format: functional; conditions: read-out: PD50
[26] = tested on: Escherichia coli; experiment: In vivo antibacterial activity against Escherichia coli H560 infected in po dosed CD-1 mouse assessed as bacterial growth inhibition; format: functional; conditions: read-out: PD50
[27] = tested on: Escherichia coli; experiment: Potency index, ratio of norfloxacin MIC to compound IC50 for antibacterial activity against Escherichia coli DH52; format: functional
[28] = tested on: Escherichia coli; experiment: Potency index, ratio of norfloxacin MIC to compound IC50 for antibacterial activity against Escherichia coli JM109; format: functional
[29] = tested on: Escherichia coli; experiment: Potency index, ratio of ciprofloxacin MIC to compound IC50 for antibacterial activity against Escherichia coli DH52; format: functional; conditions: time 24 hrs
[30] = tested on: Escherichia coli; experiment: Antibacterial activity against Escherichia coli DH52 assessed as bacterial growth inhibition; format: functional
[31] = tested on: Escherichia coli; experiment: Potency index, ratio of ciprofloxacin MIC to compound IC50 for antibacterial activity against Escherichia coli JM109; format: functional
[32] = tested on: Escherichia coli; experiment: Antibacterial activity against Escherichia coli assessed as bacterial growth inhibition by broth microdilution method; format: functional
[33] = target: DNA gyrase (Escherichia coli, UniProt P0AES4+P0AES6); experiment: Inhibition of Escherichia coli DNA gyrase; format: protein-complex assay
[34] = tested on: Escherichia coli; experiment: Antibacterial activity against Escherichia coli DC2 assessed as bacterial growth inhibition; format: functional
[35] = tested on: Escherichia coli; experiment: Antibacterial activity against Escherichia coli ES142 assessed as bacterial growth inhibition; format: functional
[36] = tested on: Escherichia coli; experiment: Antibacterial activity against Escherichia coli DC0 assessed as bacterial growth inhibition; format: functional
[37] = tested on: Escherichia coli; experiment: Antibacterial activity against Escherichia coli ATCC 25922 assessed as bacterial growth inhibition; format: functional
[38] = tested on: Escherichia coli; experiment: Antibacterial activity against Escherichia coli assessed as bacterial growth inhibition incubated for 18 hrs by agar dilution method; format: functional
[39] = tested on: Escherichia coli; experiment: Antibacterial activity against Escherichia coli ATCC 8739 assessed as bacterial growth inhibition; format: functional
[40] = tested on: Escherichia coli; experiment: Antibacterial activity against Escherichia coli ISF 432 assessed as bacterial growth inhibition; format: functional

SMILES: CCn1cc(C(=O)O)c(=O)c2cc(F)c(N3CCNCC3)cc21 [NORFLOXACIN]
MIC [3]: 0.25 µg/mL (≈ 0.783 µM) | MIC [4]: 0.31 µg/mL (≈ 0.971 µM) | MIC [5]: 1 µg/mL (≈ 3.13 µM) | MIC [6]: 0.1 µg/mL (≈ 0.313 µM) | MIC [1]: 4 µg/mL (≈ 12.5 µM) | MIC [7]: 25 µg/mL (≈ 78.3 µM) | MIC [8]: 6.25 µg/mL (≈ 19.6 µM)

SMILES: Cc1c(N2C[C@@H](F)[C@@H](C3(N)CC3)C2)c(F)c(N)c2c(=O)c(C(=O)O)cn([C@@H]3C[C@@H]3F)c12 [DQ-113]
MIC [9]: ≤ 0.003 µg/mL

SMILES: CN1CCN(c2cc3c(cc2F)c(=O)c(C(=O)O)c2n3CCS2)CC1
MIC [10]: 0.2 µg/mL (≈ 0.55 µM) | MIC [11]: 0.2 µg/mL (≈ 0.55 µM)

SMILES: C[C@H]1COc2c(N3CCN(C)CC3)c(F)cc3c(=O)c(C(=O)O)cn1c23.C[C@H]1COc2c(N3CCN(C)CC3)c(F)cc3c(=O)c(C(=O)O)cn1c23.O [LEVOFLOXACIN]
MIC [12]: 32 µg/mL | MIC [13]: 32 µg/mL | MIC90 [14]: 4 µg/mL | MIC90 [15]: 32 µg/mL

SMILES: COc1c(N2CCN(C)CC2)c(F)cc2c(=O)c(C(=O)O)c3n(c12)C(CF)S3 (stereo unspecified)
half-life [16]: 72 min | Cmax [17]: 3200 ng/mL | AUC(0-inf) [18]: 3500 ng·h/mL | MIC [10]: 0.025 µg/mL (≈ 0.0608 µM) | ED50 [19]: 0.76 mg/kg

SMILES: CCO/N=C(\C(=O)N[C@@H]1C(=O)N2C(C(=O)O)=C(CNC(=O)c3cn(CC)c4cc(O)c(O)cc4c3=O)CSC12)c1csc(N)n1 (stereo in doubt)
MIC [20]: 8 ng/mL (≈ 0.0122 µM) | Ratio [21]: 8 | MIC [22]: 8 ng/mL (≈ 0.0122 µM) | Ratio [23]: 8

SMILES: O=C(O)c1cn(-c2ccc(F)cc2F)c2nc(N3CCCC3)c(F)cc2c1=O
ED50 [25]: 0.2 mg/kg | MIC [9]: 0.025 µg/mL (≈ 0.0642 µM) | ED50 [26]: 0.5 mg/kg

SMILES: Cc1c(N2CCN(Cc3nc4ccccc4n3Cc3ccc(Cl)cc3Cl)CC2)c(F)cc2c(=O)c(C(=O)O)cn(C3CC3)c12
Ratio [27]: 2 | Ratio [28]: 2 | MIC [5]: 0.125 µg/mL (≈ 0.197 µM) | Ratio [29]: 2 | MIC [30]: 0.125 µg/mL (≈ 0.197 µM) | Ratio [31]: 2

SMILES: CCn1cc(C(=O)NNS(=O)(=O)c2ccc(C)cc2)c(=O)c2ccccc21
MIC [32]: 0.0625 µg/mL (≈ 0.162 µM)

SMILES: CC1Sc2c(C(=O)O)c(=O)c3cc(F)c(N4CCN(C)CC4)cc3n21 (stereo unspecified)
half-life [16]: 168 min | Cmax [17]: 940 ng/mL | AUC(0-inf) [18]: 2600 ng·h/mL | MIC [10]: 0.025 µg/mL (≈ 0.0688 µM) | ED50 [19]: 0.97 mg/kg

SMILES: C[C@H](N)[C@@H]1CCN(c2cc3c4c(c2)c(=O)c(C(=O)O)cn4[C@@H](C)CO3)C1
IC50 [33]: 17.9 µM | MIC [34]: 0.063 µg/mL (≈ 0.176 µM) | MIC [35]: 0.063 µg/mL (≈ 0.176 µM) | MIC [36]: 0.063 µg/mL (≈ 0.176 µM)

SMILES: C[C@@H](O)[C@H]1C(=O)N2C(C(=O)O)=C(COC(=O)N3CCN(c4cc5c(cc4F)c(=O)c(C(=O)O)cn5C4CC4)CC3)S[C@H]12
MIC [37]: ≤ 0.06 µg/mL

SMILES: CCn1cc(C(=O)NN)c(=O)c2cc(F)ccc21
MIC [32]: 0.0625 µg/mL (≈ 0.251 µM)

SMILES: C[C@H]1COc2cc(N3CC[C@@H](C(C)(C)N)C3)cc3c(=O)c(C(=O)O)cn1c23
IC50 [33]: 8.62 µM | MIC [34]: 0.063 µg/mL (≈ 0.17 µM) | MIC [35]: 0.063 µg/mL (≈ 0.17 µM) | MIC [36]: 0.063 µg/mL (≈ 0.17 µM)

Results, then the molecule that gave them:

MIC [1]: 1 µg/mL (≈ 2.73 µM)
SMILES: NC1CCN(c2c(F)cc3c(=O)c(C(=O)O)cn(C4CC4)c3c2Cl)C1 (stereo unspecified) [CLINAFLOXACIN]

MIC [2]: ≤ 0.03 µg/mL
SMILES: O=C(O)c1cn(C2CC2)c2cc(N3CCN([C@@H]4O[C@H](CO)[C@H](O)[C@H](O)[C@H]4O)CC3)c(F)cc2c1=O

MIC [24]: < 8 ng/mL
SMILES: COc1ccccc1CO/N=C1\CCN(c2c(F)cc3c(=O)c(C(=O)O)cn(C4CC4)c3c2OC)CC1N (stereo unspecified)

MIC [24]: < 8 ng/mL
SMILES: COc1cccc(CO/N=C2\CCN(c3c(F)cc4c(=O)c(C(=O)O)cn(C5CC5)c4c3OC)CC2N)c1OC (stereo unspecified)

MIC [2]: ≤ 0.03 µg/mL
SMILES: O=C(O)c1cn(C2CC2)c2cc(N3CCN([C@@H]4O[C@H](CO)[C@@H](O)[C@H](O)[C@H]4O)CC3)c(F)cc2c1=O

MIC [38]: ≤ 6 ng/mL
SMILES: COc1c(N2CC3(CC3)[C@](C)(N)C2)c(F)cc2c(=O)c(C(=O)O)cn([C@@H]3C[C@@H]3F)c12

MIC [39]: 8 ng/mL (≈ 0.0215 µM) | MIC [40]: 8 ng/mL (≈ 0.0215 µM)
SMILES: Cc1c(N2CC(C)OC(C)C2)c(N)cc2c(=O)c(C(=O)O)cn(C3CC3)c12 (stereo unspecified)

— ChEMBL document CHEMBL5244219, “Recent developments of quinolone-based derivatives and their activities against Escherichia coli” (Eur J Med Chem, 2018)
